Experiments:
[1] = test system: IRAK (IL-1 Receptor-Activated Kinase); assay: IRAK phosphorylation/activity in cells in culture; format: cell-based
Source text: IRAK (IL-1 Receptor-Activated Kinase) is a protein […] kinase (enzyme) that binds to and is activated by IL-1R (the IL-1 receptor) and in turn activates a pathway that leads to induction of c-JUN kinase, MMPs, and thus collagen degradation.

[2] = test system: c-JUN kinase; assay: c-JUN kinase activity (phosphorylation of GST-c-jun) in cultured human keratinocytes after UV; format: cell-based
[3] = test system: JNK; assay: JNK activation in UV-irradiated skin of human volunteers (FIG. 2); settings: occluded 24 hours
Experimental: Human volunteers, each having given informed consent, were used to determine the effect, if any, of pretreatment of their skin with an EGF-R PTK inhibitor prior to exposure of the skin to UV radiation. […] On the hip or buttock skin of volunteers, the test solution was placed (or on adjacent areas if both solutions were used), and the areas occluded for 24 hours; thereafter, the area was biopsied, or it was exposed to 2 MEDs of UV radiation and biopsied after exposure.
After the volunteers' skin was occuled for 24 hours, it was biopsied, and other areas were exposed to 2 MEDs of UV radiation and then biopsied about 4 hours thereafter.

[4] = test system: MMP-1 mRNA; assay: MMP-1 mRNA induced by UV radiation in skin of human volunteers (FIG. 4); format: in vivo; settings: 5% genistein in DMSO, topical, occluded 24 hours; 2 MEDs UV; biopsy 24 hours after exposure; vs vehicle-treated skin
Experimental: The same procedure as described above was repeated, except that biopsy for MMP-1 mRNA was taken 24 hours after exposure to the UV radiation.

[5] = test system: cJUN protein; assay: cJUN protein induced by UV radiation in skin of human volunteers (FIG. 3); format: in vivo; settings: 5% genistein in DMSO, topical, occluded 24 hours; 2 MEDs UV; biopsy 8 hours after exposure; vs vehicle-treated skin
Experimental: The same procedure as described above was repeated, except that biopsy for cJUN protein was taken 8 hours after exposure to the UV radiation. […] The inset in the figure is a Western blot showing the amount of cJUN protein in genistein-treated versus vehicle-treated skin.

Row | phospho-GST-c-jun protein levels ([2]; cultured human keratinocytes pretreated, then exposed to UV radiation) | skin penetration of the topical solution ([3]; 5% genistein in DMSO on human hip or buttock skin, inferred from the JNK results) | SMILES | phosphorylated IRAK ([1]; PD 153035-treated cells exposed to IL-1) | IRAK activity ([1]; cells in culture treated with PD 153035 alone, no challenge) | phosphorylated IRAK ([1]; cells treated with PD 153035 and then challenged with UV or EGF) | phospho-GST-c-jun protein ([2]; cultured human keratinocytes not exposed to UV) | JNK activation ([3]; 5% genistein in DMSO, topical, 2 MEDs UV, biopsy about 4 hours after exposure) | increase in MMP-1 mRNA induced by UV [4] | increase in the amount of cJUN protein after UV exposure [5]
1 | comparable with the baseline levels |  | COc1cc2ncnc(Nc3cccc(Br)c3)c2cc1OC [PD 153035] | no reduction in phosphorylated IRAK | minimal baseline amount of IRAK activity | clearly had less phosphorylated IRAK | baseline amount of phospho-GST-c-jun protein |  |  | 
2 |  | able to penetrate the skin | O=c1c(-c2ccc(O)cc2)coc2cc(O)cc(O)c12 [genistein, 4′,5,7-trihydroxyisoflavone] |  |  |  |  | significantly reduced the amount of JNK activated | significantly inhibited | significantly inhibited
